Values of other authors in patent US20240366562A1, “GYNECOMASTIA AND/OR MASTALGIA TREATMENT” (priority 2021, published 2024).

What was measured:
[1] = women taking Tamoxifen
[2] = test system: estrogen-dependent human MCF-7 breast cancer cell line
estrogen receptor = molecular target: T1, estrogen receptor (Homo sapiens, UniProt P03372)
T1 sequence (P03372 1-595): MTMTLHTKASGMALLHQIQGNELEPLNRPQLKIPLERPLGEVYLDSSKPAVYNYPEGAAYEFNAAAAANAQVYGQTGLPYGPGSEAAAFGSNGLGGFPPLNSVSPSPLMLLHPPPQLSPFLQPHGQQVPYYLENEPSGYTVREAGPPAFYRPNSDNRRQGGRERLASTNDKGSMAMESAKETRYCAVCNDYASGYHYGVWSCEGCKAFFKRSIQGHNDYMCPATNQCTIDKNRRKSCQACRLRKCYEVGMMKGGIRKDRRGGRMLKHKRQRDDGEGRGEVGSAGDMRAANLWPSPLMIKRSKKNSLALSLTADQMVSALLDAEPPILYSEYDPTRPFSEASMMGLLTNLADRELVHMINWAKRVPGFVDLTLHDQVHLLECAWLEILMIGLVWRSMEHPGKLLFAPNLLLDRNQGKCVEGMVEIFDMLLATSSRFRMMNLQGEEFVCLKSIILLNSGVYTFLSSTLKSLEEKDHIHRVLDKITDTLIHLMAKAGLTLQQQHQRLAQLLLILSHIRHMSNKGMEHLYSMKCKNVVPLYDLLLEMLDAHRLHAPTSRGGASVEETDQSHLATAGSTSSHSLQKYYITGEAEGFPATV

mammary tumors = details: rodents
[3] = human subjects who ingested I3C

| Structure (SMILES) | Tamoxifen metabolites [1] | Competes with estrogen (estrogen pathway) | Enhances 2HE1 excretion (estrogen pathway) | Inhibits estrogen synthesis (estrogen pathway) | Lowers circulating estrogen (estrogen pathway) | Triggers degradation of ERα (estrogen pathway) | Expression of CDK6 [2] | Competition with estrogen for estrogen receptor binding (estrogen receptor) | Formation of spontaneous and carcinogen-induced mammary tumors (mammary tumors) | Side effects (mammary tumors) | Side effects [3] |
| --- | --- | --- | --- | --- | --- | --- | --- | --- | --- | --- | --- |
| c1ccc2c(Cc3c[nH]c4ccccc34)c[nH]c2c1 [DIM, 3,3′-diindolylmethane] | decreases in Tamoxifen metabolites |  |  |  |  |  |  |  |  |  |  |
| OCc1c[nH]c2ccccc12 [Compound I3C, Indole-3-carbinole] |  | no | yes | yes | yes | yes | down-regulates | fail to compete | reduce the formation | no apparent side effects | no side effects |
| CC/C(=C(\c1ccccc1)c1ccc(OCCN(C)C)cc1)c1ccccc1 [Tamoxifen, reference compound] |  | yes | no | no | no | no |  |  |  |  |  |
